These results are taken from patent US6011058A, “Seco-cholestane derivatives and methods of making the same” (Georgia Tech Research Corporation, priority 1998, dated 2000).

The target in assay [1] is T1, glutathione S-transferase (GST) fusion protein containing the full length sequence for human cdc25A (Homo sapiens, UniProt P30304).
T1 construct: made in house; host or cells: Escherichia coli
T1 sequence (P30304 1-524): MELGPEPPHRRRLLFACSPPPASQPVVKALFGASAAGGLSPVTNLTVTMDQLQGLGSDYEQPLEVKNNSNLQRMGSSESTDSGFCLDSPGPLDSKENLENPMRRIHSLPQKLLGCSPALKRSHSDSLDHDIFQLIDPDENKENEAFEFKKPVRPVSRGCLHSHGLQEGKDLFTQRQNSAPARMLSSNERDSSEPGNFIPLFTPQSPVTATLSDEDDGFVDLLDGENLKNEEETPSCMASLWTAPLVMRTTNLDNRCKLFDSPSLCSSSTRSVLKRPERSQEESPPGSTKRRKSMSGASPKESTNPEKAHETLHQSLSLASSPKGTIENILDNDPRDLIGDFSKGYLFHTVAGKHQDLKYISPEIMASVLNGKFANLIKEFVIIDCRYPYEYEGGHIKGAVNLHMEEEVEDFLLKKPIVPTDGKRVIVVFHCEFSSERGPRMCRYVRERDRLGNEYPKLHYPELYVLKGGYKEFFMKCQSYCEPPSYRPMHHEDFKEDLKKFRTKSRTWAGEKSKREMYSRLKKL
The experiment in a line: Inhibition of CDC25A phosphatase (fluorescein diphosphate substrate). In kind it is biochemical. As to conditions: for IC50: 10 mM dithiothreitol, fluorescein diphosphate substrate, read-out: Approximate IC50 (concentration yielding 50% inhibition of cdc25A) (converted); for relative potency against CDC25A, vs the double bond unsaturated compounds in the series: compared with double bond unsaturated compound in this series. The source says: Rice, R. L. et al., A targeted Library of Small-Molecule, Tyrosine, and Dual-Specificity Phosphatase Inhibitors Derived from a Rational Core Design and Random Side Chain Variation, Biochemistry, 1997, 36, 15965-15974. Briefly, the target enzyme for the assay was a glutathione S-transferase (GST) fusion protein containing the full length sequence for human cdc25A. The enzyme was expressed in Escherichia coli and purified by affinity chromatography over glutathione-agarose. Enzyme activity was measured under linear reaction conditions with fluorescein diphosphate as the substrate. Reactions were performed in the presence of 10 mM dithiothreitol to eliminate oxidant-type inhibitors from scoring as hits in this assay.

In assay [2] the test system is A549 human lung adenocarcinoma cells. The experiment in a line: Clonogenic assay, inhibition of growth of lung adenocarcinoma (A549) cells. In kind it is cell-based. Here is the method:
(§1) HT-29 human colon cancer cells and A549 human lung adenocarcinoma cells were purchased from the American Tissue Type Collection (Rockville, Md.). The cell were maintained in Dulbecco's modified Eagle's media (DMEM) containing 10% fetal bovine serum and harvested with 0.05% trypsin and 0.5 mM EDTA before becoming confluent.
Compound 6 prepared as discussed in the preceding examples were also evaluated for potency as inhibitors of the growth of lung adenocarcinoma cell lines. The effect of compound 6 was assessed with a clonogenic assay. In brief, A549 cells in log-phase growth were harvested, resuspended in fresh growth media and plated in triplicate in 60 mm dishes at cell concentrations estimated to yield 20-100 colonies per dish following treatment. Four hours after plating, cells were either exposed to compound 6 for one day followed by a wash and culture in fresh medium for 11 days (dotted line), or continuously exposed to this compound for 12 days (solid line). Cells were fixed and stained with Coomassie Blue at the end of the 12th day. Colonies with greater than 50 cells were scored.

For assay [3], the system named is HT-29 human colon cancer cells. The experiment in a line: Inhibition of HT-29 colon carcinoma cell growth, soft agarose colony-forming assay. In kind it is cell-based. As to conditions: HT-29, 168 h, continuous drug exposure over 7 days, read-out: IC50, proliferation of HT-29 colon cancer cells. As for the experimental part:
as §1
Compounds 6 and 8 prepared as discussed in the preceding examples were also evaluated for potency as inhibitors of colon cancer cell lines (HT-29). Inhibition of HT-29 colon carcinoma cell growth by compounds 6 and 8 was measured in the soft agarose colony-forming assay with continuous drug exposure over 7 days as previously described. Alley M. C. et al., Activation and inactivation of cancer chemotherapeutic agents by rat heptocytes cocultured with human tumor cell lines, Cancer Res 44:549 (1984). Briefly, soft-agarose culture was performed in 35-mm culture dishes contained a base layer consisting of 0.5 ml of standard culture medium with 0.5% agarose. […] Cell lines forming a sufficient number of detectable colonies were analyzed following 7 days of incubation. Viable colonies were stained using metabolizable tetrazolium salt, and analyzed as described previously. […]

Converted amounts (≈) assume the structure as drawn. “Also recorded” adds a separate entry of the source. Like-named read-outs stand apart in the source and are kept apart here.

On to “3-actoxy-5, 6-seco-5-oxo-pregnen-6-oic acid [reference compound]”, for which the “inhibitory activity against CDC25A phosphatase” value in assay [1] (negative control) is recorded as “no inhibitory activity; also recorded: lost its activity”.
With `CC(C)CCC[C@@H](C)[C@H]1CC[C@H]2[C@@H]3CC(=O)O[C@](C)(CC/C=C\C#N)[C@H]3CC[C@]12C` [Compound 6], the IC50 is 7 µM in assay [2] (A549, 288 h, 12-day continuous exposure, read-out: concentration reducing number of A549 colonies per dish 50%); 37 µM in assay [2] (A549, one day exposure, wash, then fresh medium for 11 days, read-out: concentration giving 50% reduction of the tumor cell colony number per dish); 5 µg/mL (≈ 12.1 µM) in assay [3]; 14.5 µM in assay [1].
For `C=C(CC/C=C\C#N)[C@H]1CC[C@]2(C)[C@@H]([C@H](C)CCCC(C)C)CC[C@H]2[C@@H]1CC(=O)O` [Compound 8], the IC50 is 4.8 µg/mL (≈ 11.6 µM) in assay [3] and 10.6 µM in assay [1].
For `C/C(=C/C/C=C\C#N)[C@H]1CC[C@]2(C)[C@@H]([C@H](C)CCCC(C)C)CC[C@H]2[C@@H]1CC(=O)O` [Compound 9], the IC50 in assay [1] is above 24.2 µM.
With `C/C(=C\C/C=C\C#N)[C@H]1CC[C@]2(C)[C@@H]([C@H](C)CCCC(C)C)CC[C@H]2[C@@H]1CC(=O)O` [Compound 10], the IC50 in assay [1] is 24.2 µM.
On to `CC(C)CCC[C@@H](C)[C@H]1CC[C@H]2[C@@H]3CC(=O)O[C@@](C)(CC/C=C\C#N)[C@H]3CC[C@]12C` [Compound 7], for which the IC50 in assay [1] is above 121 µM. In assay [1] (10S vs 10R isomer, compound 6), the “relative activity against CDC25A, vs 10R isomer compound 6” value is on record as “much less active”.
`CC(C)CCC[C@@H](C)[C@H]1CC[C@H]2[C@@H]3CC(=O)O[C@](C)(CCCCC#N)[C@H]3CC[C@]12C` [Compound 15]: in assay [1], the IC50 is 2.17 µM and the “relative potency against CDC25A, vs the double bond unsaturated compounds in the series” value is reported as “much more potent”.
For `C=C(CCCCC#N)[C@H]1CC[C@]2(C)[C@@H]([C@H](C)CCCC(C)C)CC[C@H]2[C@@H]1CC(=O)O` [Compound 13] the same measures were 2.17 µM and “much more potent”.
